The values that follow are results of earlier work, collected in US9433643B2, “Microbicidal composition comprising hydrogen peroxide and aminocarboxylic acids” (Truox, Inc., priority 2013, dated 2016).

SMILES strings stand for the structures.

The conditions of data set [1]: reported.
The conditions of data set [2]: at 25° C., reported.

Turning to `O=C(O)CN(CCN(CC(=O)O)CC(=O)O)CC(=O)O` [EDTA, ethylenediaminetetraacetic acid], in data set [1] (carboxylic acid groups), the pK1 was 2.00, the pK2 is 2.65, the pK3 was 6.18 and the pK4 is listed as 10.30.
As usually defined, the pKa is the negative logarithm of the acid dissociation constant. Regarding `CC(=O)OO` [Peroxyacetic acid], in data set [1], the pKa is on record as 4.76.
With `C[C@H](N)C(=O)O` [alanine], in data set [2], the “isoelectric point (pI)” value is reported as 6.11.
Turning to `N=C(N)NCCC[C@H](N)C(=O)O` [arginine], the “isoelectric point (pI)” value in data set [2] was 10.76.
`N[C@@H](CC(=O)O)C(=O)O` [aspartic acid]: the “isoelectric point (pI)” value in data set [2] was 2.98.
Consider `N[C@@H](CCC(=O)O)C(=O)O` [glutamic acid], for which the “isoelectric point (pI)” value in data set [2] was 3.08.
On to `NCC(=O)O` [glycine, aminoethanoic acid], for which, in data set [2], the “isoelectric point (pI)” value was 6.06.
